Where two headings read alike, the source gives them in different places.
How the values were obtained:
[1] = system: BaF3 (EGFR Del19/T790M/C797S); experiment: Cell proliferation IC50 assay (Cell Titer GLO), BaF3 DTC cells; assay type: cell-based; settings: Mus musculus, Ba/F3 EGFR-Del19/T790M/C797S
Method: (§1) IC50 of compounds in the present invention was determined by Cell Titer GLO reagent from Promega. The procedures are as follows:
(§2) Tumor cells were cultured in specified medium in an incubator at 37° C. and 5% CO2. The cells were passaged periodically. Cells at the logarithmic growth phase were collected for plating at a density of 2000-4000 cells/well. The next day, the compounds of the present invention were serially diluted and added to the cells, with DMSO being the negative control and the culture media without cells being the blank control. The plate was incubated in the incubator for 72 h. The cell viability assay was performed by adding the detection reagents to the cell culture media according to Cell Titer GLO reagent instructions and detecting luminescent signals on an EnVision microplate reader (PerkinElmer).
(§3) Inhibition of cell growth by the compounds of the present invention was plotted by Prism Graphpad software for statistically calculating the IC50 of the compound of the present invention.

[2] = system: BaF3 (EGFR L858R/T790M/C797S); experiment: Cell proliferation IC50 assay (Cell Titer GLO), BaF3 LTC cells; assay type: cell-based; settings: Mus musculus, Ba/F3 EGFR
Procedure, shortened: (§4)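 Log-phase cells seeded 2000-4000/well, serial compound dilutions added one day later; DMSO negative, medium-only blank.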

[3] = system: BaF3 (EGFR WT); experiment: Cell proliferation IC50 assay (Cell Titer GLO), BaF3 WT cells; assay type: cell-based; settings: Mus musculus, Ba/F3 EGFR, 72 h
Procedure, shortened: as §4

[4] = system: BaF3 patent; experiment: Cell proliferation IC50 assay (Cell Titer GLO), BaF3 parental cells; assay type: cell-based; settings: Mus musculus
Method: as §1, §2, §3

[5] = system: A431; experiment: Cell proliferation IC50 assay (Cell Titer GLO), A431 cells; assay type: cell-based; settings: Homo sapiens, A-431, A431, 72 h, read-out: A431 IC50
Procedure, shortened: as §4

[6] = target: T1, BaF3 (EGFR Del19/C797S) (Homo sapiens, UniProt P00533, C797S, cells depend on it, form not given); experiment: Cell proliferation IC50 assay (Cell Titer GLO), BaF3 DC cells; assay type: cell-based, mouse; settings: Table 6, 72 h
T1 construct: BaF3 (EGFR Del19/C797S)|DC|RPMI1640 + 10% FBS
Procedure, shortened: as §4

T1 sequence (P00533 with tags, fused parts or gaps DEL746-750/C797S, form open): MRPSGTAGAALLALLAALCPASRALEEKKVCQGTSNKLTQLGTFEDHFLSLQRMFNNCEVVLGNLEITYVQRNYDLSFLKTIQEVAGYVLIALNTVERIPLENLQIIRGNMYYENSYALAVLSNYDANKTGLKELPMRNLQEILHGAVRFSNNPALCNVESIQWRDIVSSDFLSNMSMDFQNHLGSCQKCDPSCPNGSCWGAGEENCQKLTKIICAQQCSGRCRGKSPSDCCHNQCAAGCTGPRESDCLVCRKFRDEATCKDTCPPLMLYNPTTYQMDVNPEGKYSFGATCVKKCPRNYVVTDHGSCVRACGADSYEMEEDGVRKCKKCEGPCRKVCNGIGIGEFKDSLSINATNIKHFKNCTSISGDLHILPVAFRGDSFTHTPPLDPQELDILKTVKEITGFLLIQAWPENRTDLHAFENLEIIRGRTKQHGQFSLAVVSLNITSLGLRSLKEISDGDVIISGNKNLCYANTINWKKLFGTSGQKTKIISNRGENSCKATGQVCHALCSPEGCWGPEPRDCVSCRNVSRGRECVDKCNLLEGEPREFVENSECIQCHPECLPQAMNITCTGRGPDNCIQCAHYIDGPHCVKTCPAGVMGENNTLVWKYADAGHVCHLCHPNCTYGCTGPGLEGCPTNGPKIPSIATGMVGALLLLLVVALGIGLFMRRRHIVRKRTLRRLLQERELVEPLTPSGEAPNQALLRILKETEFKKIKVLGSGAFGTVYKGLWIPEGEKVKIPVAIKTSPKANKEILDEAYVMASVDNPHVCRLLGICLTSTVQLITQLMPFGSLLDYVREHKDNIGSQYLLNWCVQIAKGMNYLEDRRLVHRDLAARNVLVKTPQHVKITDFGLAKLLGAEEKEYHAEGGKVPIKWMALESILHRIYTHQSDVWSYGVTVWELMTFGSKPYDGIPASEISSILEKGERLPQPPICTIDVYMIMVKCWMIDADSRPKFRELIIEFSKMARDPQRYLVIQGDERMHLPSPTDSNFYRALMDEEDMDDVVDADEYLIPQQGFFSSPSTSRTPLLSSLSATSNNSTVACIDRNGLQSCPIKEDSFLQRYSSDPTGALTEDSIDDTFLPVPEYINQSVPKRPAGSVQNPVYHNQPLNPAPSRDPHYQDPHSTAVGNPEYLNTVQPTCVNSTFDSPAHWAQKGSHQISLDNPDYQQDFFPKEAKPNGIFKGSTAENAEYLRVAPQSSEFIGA

Row | IC50 ([1]; Table 5, 72 h) [nM] | IC50 ([2]; Table 5, 72 h) [nM] | IC50 ([3]; Table 5, 10 ng/ml EGF) [nM] | IC50 ([5]; Table 5) [nM] | IC50 ([2]; Table 6, 72 h) [nM] | IC50 [6] [nM] | IC50 ([3]; Table 6, 10 ng/ml EGF) [nM] | IC50 ([5]; Table 6) [nM] | IC50 ([1]; Table 6, 72 h) [nM] | Structure (SMILES) | IC50 ([4]; Table 5, 10 ng/ml mIL3, 72 h) [nM] | IC50 ([4]; Table 6, 10 ng/ml mIL3, 72 h) [nM]
1 | 28 | 199 | 380 | 2820 |  |  |  |  |  | COc1cc(N2CCC3(CCN(CCCC#Cc4cccc5c4CN(C4CCC(=O)NC4=O)C5=O)CC3)CC2)ccc1Nc1ncc(Cl)c(Nc2ccccc2P(C)(C)=O)n1 (centres unmarked) [Example C-1, reference compound] | 376 | 
2 | 43.7 | 129 | 587 | 1210 |  |  |  |  |  | COc1cc(N2CCC(N3CCN(CC#Cc4cccc5c4CN(C4CCC(=O)NC4=O)C5=O)CC3)CC2)ccc1Nc1ncc(Cl)c(Nc2ccccc2P(C)(C)=O)n1 (centres unmarked) [Example C-3, reference compound] | 475 | 
3 | 41.7 | 70.7 |  |  |  |  |  |  |  | COc1cc(N2CCC(N3CCN(CCCc4cccc5c4CN(C4CCC(=O)NC4=O)C5=O)CC3)CC2)ccc1Nc1ncc(Cl)c(Nc2ccccc2P(C)(C)=O)n1 (centres unmarked) [Example C-4, reference compound] | 142 | 
4 | 22.5 | 103 | 1630 | 1230 |  |  |  |  |  | COc1cc(N2CCC(N3CCN(CCCCCc4ccc5c(c4)CN(C4CCC(=O)NC4=O)C5=O)CC3)CC2)ccc1Nc1ncc(Cl)c(Nc2ccccc2P(C)(C)=O)n1 (centres unmarked) [Example C-5, reference compound] | 570 | 
5 | 7.8 | 33.6 | 79.2 | 342 |  |  |  |  |  | COc1cc(N2CCC(N3CCC4(CCC(Oc5cccc6c5CN(C5CCC(=O)NC5=O)C6=O)CC4)C3)CC2)ccc1Nc1ncc(Cl)c(Nc2ccccc2P(C)(C)=O)n1 (centres unmarked) [Example C-6, reference compound] | 93 | 
6 | 14.3 | 46.6 | 287 |  |  |  |  |  |  | COc1cc(N2CCC(N3CCN(CCC#Cc4cccc5c4CN(C4CCC(=O)NC4=O)C5=O)CC3)CC2)c(C)cc1Nc1ncc(Cl)c(Nc2ccccc2P(C)(C)=O)n1 (centres unmarked) [Example E3] | 521 | 
7 |  |  |  |  | 42.7 | 14.9 | 134 |  |  | COc1cc(N2CCC(N3CCN(CCC#Cc4cccc5c4CN(C4CCC(=O)NC4=O)C5=O)CC3)CC2)c(C)cc1Nc1ncc(Br)c(Nc2ccccc2P(C)(C)=O)n1 (centres unmarked) [Example E7] |  | 271
8 | 5.6 | 11.2 | 28.4 | 392 |  |  |  |  |  | CCc1cc(Nc2ncc(Cl)c(Nc3ccccc3P(C)(C)=O)n2)ccc1N1CCC(N2CCN(CCC#Cc3cccc4c3CN(C3CCC(=O)NC3=O)C4=O)CC2)CC1 (centres unmarked) [Example E9] | 20.7 | 
9 | 15.5 | 28.4 | 101 | 1210 |  |  |  |  |  | COc1cc(N2CCC(N3CCN(CCC#Cc4cccc5c4CN(C4CCC(=O)NC4=O)C5=O)CC3)CC2)c(Cl)cc1Nc1ncc(Cl)c(Nc2ccccc2P(C)(C)=O)n1 (centres unmarked) [Example E10] | 54.9 | 
10 | 17.1 | 61.3 | 236 | > 4000 |  |  |  |  |  | COc1cc(N2CCC3(CCN(CCCC#Cc4cccc5c4CN(C4CCC(=O)NC4=O)C5=O)CC3)CC2)c(Cl)cc1Nc1ncc(Cl)c(Nc2ccccc2P(C)(C)=O)n1 (centres unmarked) [Example E11] | 147 | 
11 |  |  |  |  | 34.1 | 4.1 | 275 | 1050 |  | CCc1cc(Nc2ncc(Br)c(Nc3ccc4c(c3P(C)(C)=O)OCCO4)n2)c(OC)cc1N1CCC(N2CCN(CCC#Cc3cccc4c3CN(C3CCC(=O)NC3=O)C4=O)CC2)CC1 (centres unmarked) [Example E22] |  | 385
12 |  |  |  |  | 17.5 | 4.9 | 260 | 1210 |  | CCc1cc(Nc2ncc(Cl)c(Nc3ccccc3P(C)(C)=O)n2)c(OC)cc1N1CCC(N2CCC3(CCC(=Cc4cccc5c4CN(C4CCC(=O)NC4=O)C5=O)CC3)C2)CC1 (centres unmarked) [Example E40] |  | 131
13 |  |  |  |  | 15.8 | 6.6 | 330 | 1060 |  | COc1cc(N2CCC(N3CCN(CCC#Cc4cccc5c4CN(C4CCC(=O)NC4=O)C5=O)CC3)CC2)c(C)cc1Nc1ncc(Br)c(Nc2ccc3c(c2P(C)(C)=O)OCCO3)n1 (centres unmarked) [Example E43] |  | 122
14 |  |  |  |  | 21.2 | 8.5 | 585 | 1240 |  | CCc1cc(Nc2ncc(Cl)c(Nc3ccccc3P(C)(C)=O)n2)c(OC)cc1N1CCC(N2CCC3(CCC(Cc4cccc5c4CN(C4CCC(=O)NC4=O)C5=O)CC3)C2)CC1 (centres unmarked) [Example E45] |  | 221
15 |  |  |  |  | 62.3 | 54.4 | 1550 | > 4000 |  | COc1cc(N2CCC(N3CCN(CCC#Cc4cccc5c4CN(C4CCC(=O)NC4=O)C5=O)CC3)CC2)ncc1Nc1ncc(Cl)c(Nc2ccccc2P(C)(C)=O)n1 (centres unmarked) [Example E71] |  | 719
16 |  |  |  |  | 56.1 | 6.7 | > 4000 | 3160 | 3.85 | CCc1cc(Nc2ncc(Cl)c(Nc3ccccc3P(C)(C)=O)n2)c(OC(F)F)cc1N1CCC(N2CCN(CCOc3cccc4c3CN(C3CCC(=O)NC3=O)C4=O)CC2)CC1 (centres unmarked) [Example E151] |  | 
17 |  |  |  |  | 227 | 16.2 | > 4000 | 1470 | 7.63 | CCc1cc(Nc2ncc(Cl)c(Nc3ccccc3P(C)(C)=O)n2)c(OC(F)(F)F)cc1N1CCC(N2CCN(CCOc3cccc4c3CN(C3CCC(=O)NC3=O)C4=O)CC2)CC1 (centres unmarked) [Example E152] |  | 
18 |  |  |  |  | 218 | 16.7 | > 4000 | ≥ 1540 | 10.7 | CCc1cc(Nc2ncc(Cl)c(Nc3ccccc3P(C)(C)=O)n2)c(OC)cc1N1CCC(N2CCN(C(C)(C)C#Cc3cccc4c3CN(C3CCC(=O)NC3=O)C4=O)CC2)CC1 (centres unmarked) [Example E156] |  | 
19 |  |  |  |  | 103 | 33.7 | 3780 | 3170 | 11.2 | CCc1cc(Nc2ncc(Cl)c(Nc3ccccc3P(C)(C)=O)n2)c(OC)cc1N1CCC(N2CCN(CC(C)(C)Oc3cccc4c3CN(C3CCC(=O)NC3=O)C4=O)CC2)CC1 (centres unmarked) [Example E157] |  | 
20 |  |  |  |  | 14.3 | 0.8 | 1290 | 2410 | 2.89 | CCc1cc(Nc2ncc(Cl)c(Nc3ccccc3P(C)(C)=O)n2)c(OC)cc1N1CCC(N2CCN([C@H]3C[C@H](Oc4cccc5c4CN(C4CCC(=O)NC4=O)C5=O)C3)CC2)CC1 (some centres unmarked) [Example E160] |  | 
21 |  |  |  |  | > 4000 | 4.2 | > 4000 | > 4000 | 780 | CCc1cc(Nc2ncc(-n3cccn3)c(Nc3ccccc3P(C)(C)=O)n2)c(OC)cc1N1CCC(N2CCN(CCOc3cccc4c3CN(C3CCC(=O)NC3=O)C4=O)CC2)CC1 (centres unmarked) [Example E165] |  | 
22 |  |  |  |  | 3050 | 1.5 | 975 | 1100 | 37.8 | CCc1cc(Nc2ncc(-c3cn[nH]c3)c(Nc3ccccc3P(C)(C)=O)n2)c(OC)cc1N1CCC(N2CCN(CCOc3cccc4c3CN(C3CCC(=O)NC3=O)C4=O)CC2)CC1 (centres unmarked) [Example E167] |  | 
23 |  |  |  |  | 44.6 | 1.3 | 153 | 1160 | 5.94 | COc1cc(N2CCC(N3CCN(CCCCOc4cccc5c4CN(C4CCC(=O)NC4=O)C5=O)CC3)CC2)c(CC#N)cc1Nc1ncc(Cl)c(Nc2ccccc2P(C)(C)=O)n1 (centres unmarked) [Example E179] |  | 
24 |  |  |  |  | 22.6 | 2.4 | 888 | 1100 | 5.35 | COc1cc(N2CCC(N3CCN(CCC#Cc4cccc5c4CN(C4CCC(=O)NC4=O)C5=O)CC3)CC2)c(CC#N)cc1Nc1ncc(Cl)c(Nc2ccccc2P(C)(C)=O)n1 (centres unmarked) [Example E180] |  | 
25 |  |  |  |  | 144 | 20.3 | 1650 | 1830 | 18.8 | COc1cc(N2CCC(N3CCN(CCOc4cccc5c4CN(C4CCC(=O)NC4=O)C5=O)CC3)CC2)c(C(C)=O)cc1Nc1ncc(Cl)c(Nc2ccccc2P(C)(C)=O)n1 (centres unmarked) [Example E185] |  | 
26 |  |  |  |  | 51.7 | 9.9 | > 4000 | 1050 | 6.87 | CCc1cc(Nc2ncc(Cl)c(Nc3ccccc3P(C)(C)=O)n2)c(OC)cc1N1CCC(N2CCN([C@H]3C[C@H](Oc4cc5c(cc4F)C(=O)N(C4CCC(=O)NC4=O)C5)C3)CC2)CC1 (some centres unmarked) [Example E205] |  | 
27 |  |  |  |  | 22.5 | 6.4 | 1750 | > 4000 | 12.1 | [2H]C([2H])([2H])C([2H])([2H])c1cc(Nc2ncc(Cl)c(Nc3ccccc3P(C)(C)=O)n2)c(OC)cc1N1CCC(N2CCN(CCOc3ccc4c(c3)CN(C3CCC(=O)NC3=O)C4=O)CC2)CC1 (centres unmarked) [Example E221] |  | 

Reference: patent US20240408216A1, “PROTEIN INHIBITOR OR DEGRADING AGENT, PHARMACEUTICAL COMPOSITION CONTAINING SAME AND PHARMACEUTICAL USE” (JING MEDICINE TECHNOLOGY (SHANGHAI) LTD., priority 2021, published 2024)
